Reference: US20200009173A1, “TRIAZOLE-CONTAINING MACROLIDES AND OPHTHALMIC USES THEREFOR” (Tetard, Inc., priority 2017, published 2020)
In brackets after ≈: the same amount, converted by molar mass. Where two headings read alike, the source gives them in different places.

How the values were obtained:
Mycobacterium avium = experiment: MIC, Mycobacterium avium; assay type: cell-based; details: N = 30
Streptococcus mitis = experiment: MIC, Streptococcus mitis; assay type: cell-based; details: N = 73
Staphylococcus aureus = experiment: MIC, Staphylococcus aureus; assay type: cell-based; details: N = 201
Corynebacterium spp. = experiment: MIC, Corynebacterium spp.; assay type: cell-based; details: N = 10
MSSA = experiment: MICs of solithromycin and comparator drugs, MSSA (31 species); assay type: cell-based
From the text: (§1) EXAMPLE. The formulations described herein show overall higher potency against ocular pathogens than commercial standards.
(§2) MICs (μg/ml) of Solithromycin and Comparator Drugs against Bacterial Species

Chlamydophila pneumoniae = experiment: MIC, Chlamydophila pneumoniae (10 strains); assay type: cell-based
[1] = tested on: Streptococci (Groups C, F, G); experiment: MIC, Streptococci (Groups C, F, G); assay type: cell-based; details: N = 185
[2] = tested on: Streptococcus pyogenes (a); experiment: MIC, Streptococcus pyogenes (a); assay type: cell-based; details: N = 407
H. influenzae = experiment: MICs of solithromycin and comparator drugs, H. influenzae (30 species); assay type: cell-based
From the text: as §1, §2

MMP9 = MMP9 activity in PMA-stimulated U937 cells (gelatin zymography); assay type: cell-based, human; details: Homo sapiens, U-937
Protocol: EXAMPLE. […] Cells. The human monocytic cell line U937 was obtained from the American Type Culture Collection (ATCC, Rockville, Md.). PBMCs from COPD patients were obtained from Brompton hospital and separated by AccuSPIN (Sigma-Aldrich). […] U937 cells were differentiated into adherent macrophage-like morphology by exposure to PMA (50 ng/ml) for 48 h in complete growth medium. Cell viability was assessed microscopically by trypan blue staining. Cell toxicity was determined by MTT assay as needed. This study was approved by the ethics committee of the Royal Brompton Hospitals, and all subjects gave written informed consent. Zymography. MMP9 enzyme activity was measured by gelatin zymography. […] After electrophoresis, gels were incubated and rinsed with Novex® zymogram renaturing buffer (Invitrogen) for 30 min at room temperature. The gels were then rinsed in Novex® zymogram developing buffer (Invitrogen) for 30 min at room temperature prior to overnight incubation in the developing buffer at 37° C. After incubation, the gels were stained using a Colloidal Blue Staining Kit (Invitrogen) to visualize the zymogen bands. Statistical analysis. The results were expressed as the mean±SEM. Comparisons of data in two groups were performed using the Student's t test or the Wilcoxon signed rank test. Multiple comparisons were made by one-way ANOVA with post hoc test (Dunnett's) as appropriate. The difference was considered significant at p<0.05.

[3] = tested on: phagocytized L. monocytogenes; experiment: Activity against phagocytized L. monocytogenes; assay type: cell-based
pathogenic bacteria = assay type: cell-based
[4] = Corneal permeability, Franz-Cell Diffusion Apparatus; assay type: in vitro ADME; details: bovine (calf), pH 7
Protocol: EXAMPLE. Corneal Permeability. Corneal permeability is determined using conventional protocols. Briefly, corneal permeability is determined on freshly excised bovine (calf) cornea using a Franz-Cell Diffusion Apparatus generally with n=3/group. Freshly excised calf cornea are stored until use in hydrating solution containing glutathione and buffer. The Apparatus includes a donor chamber on the top where a predetermined volume of the formulation is pipetted and a jacketed receptor cell with a sampling side arm. The joint between the donor and receptor cell is upward-convex, mimicking the shape of the cornea. The corneal membrane is placed on the ball joint with the cornea facing the donor chamber. The Apparatus is clamped to secure the cells with the donor and receptor chambers aligned. […] The volume is recorded. […] Test samples are added in rapid succession by depositing 200 μL of the formulation into each donor chamber using a calibrated pipet and the times recorded. […] Flux can be calculated by the formula: J=Q/(A·t), where Q is the quantity (micrograms) of compound traversing the membrane in time t (minutes), and A is the area of exposed membrane in cm^2. […] After completion of the diffusion, corneas are weighed to determine the quantity of bound test compound in the cornea, and the corneal thicknesses of each cornea is measured at the point of diffusion (the center) using Vernier calipers. […]

Moraxella catarrhalis = experiment: MIC, Moraxella catarrhalis; assay type: cell-based; details: N = 21
Listeria monocytogenes = experiment: MIC, Listeria monocytogenes; assay type: cell-based; details: N = 10
[5] = MIC in the presence of serum; assay type: cell-based; details: 10% serum

In the case of `CC[C@H]1OC(=O)[C@@](C)(F)C(=O)[C@H](C)[C@@H](O[C@@H]2O[C@H](C)C[C@H](N(C)C)[C@H]2O)[C@](C)(OC)C[C@@H](C)C(=O)[C@H](C)[C@H]2N(CCCCn3cc(-c4cccc(N)c4)nn3)C(=O)O[C@]12C` [CEM-101, solithromycin], the MIC50 (Mycobacterium avium; Mycobacterium avium) is reported as 1 µg/mL (≈ 1.18 µM), the MIC90 (Mycobacterium avium; Mycobacterium avium) is reported as 1 µg/mL (≈ 1.18 µM) and the “MIC Range” value (Mycobacterium avium) is reported as 1 µg/mL (≈ 1.18 µM). The “MIC Range” value (Streptococcus mitis) was ≤0.03-0.25^ μg/mL, the MIC50 (Streptococcus mitis; Streptococcus mitis) was no more than 0.03 µg/mL and the MIC90 (Streptococcus mitis; Streptococcus mitis) was 0.06 µg/mL (≈ 0.071 µM). It also gave an MIC50 (Staphylococcus aureus) of 0.12 µg/mL (≈ 0.142 µM), an MIC90 (Staphylococcus aureus) greater than 16 µg/mL and an MIC50 (Corynebacterium spp.; Corynebacterium) of 0.015 µg/mL (≈ 0.0178 µM). For the same compound, the MIC90 (Corynebacterium spp.; Corynebacterium) was 0.5 µg/mL (≈ 0.592 µM), the “MIC Range” value (Corynebacterium spp.) was ≤0.008-16 ^ μg/mL and the “I (intermediate susceptibility)” value (MSSA) was 0%. The “MIC Range” value (MSSA) was 0.004 to 64 µg/mL, the “NS (not susceptible)” value (MSSA) was 6% and the “S (susceptible)” value (MSSA) was 94%. It also gave an MIC50 (MSSA; Staphylococcus aureus, MSSA) of 0.015 µg/mL (≈ 0.0178 µM), an MIC90 (MSSA; Staphylococcus aureus, MSSA) of 0.03 µg/mL (≈ 0.0355 µM) and an MIC90 (Chlamydophila pneumoniae; Chlamydia pneumoniae, 10 strains, read-out: MIC90) of 0.25 µg/mL (≈ 0.296 µM). For the same compound, the MIC50 (Chlamydophila pneumoniae; Chlamydia pneumoniae, N = 10) was 0.25 µg/mL (≈ 0.296 µM), the MIC90 (Chlamydophila pneumoniae; N = 10) was 0.25 µg/mL (≈ 0.296 µM) and the “MIC Range” value (Chlamydophila pneumoniae; N = 10) was 0.25 to 1 µg/mL. For the same compound, the MIC50 [1] was no more than 0.03 µg/mL, the MIC90 [1] was no more than 0.03 µg/mL and the “MIC Range” value [1] was ≤0.03-0.25^ μg/mL. For the same compound, the “MIC Range” value [2] was ≤0.03-0.5 ^ μg/mL, the MIC50 ([2]; Streptococcus pyogenes) was no more than 0.03 µg/mL and the MIC90 ([2]; Streptococcus pyogenes) was no more than 0.03 µg/mL. The “I (intermediate susceptibility)” value (H. influenzae) was 0%, the “MIC Range” value (H. influenzae) was 1 to 4 µg/mL and the “NS (not susceptible)” value (H. influenzae) was 0%. The “S (susceptible)” value (H. influenzae) was 100%, the MIC50 (H. influenzae; Haemophilus influenzae) was 2 µg/mL (≈ 2.37 µM) and the MIC90 (H. influenzae; Haemophilus influenzae) was 2 µg/mL (≈ 2.37 µM). For the same compound, the IC50 (MMP9) was 14.9 ± 3.1 µM, the “potency relative to azithromycin” value [3] was 50 fold and the “activity against AZI resistant strains” value (pathogenic bacteria) was “active against all AZI resistant strains tested”. The “activity at acidic pH relative to AZI” value (pathogenic bacteria; acidic pH, including in L. monocytogenes and S. aureus) was 100-200 fold, the “activity relative to conventional macrolides” value (pathogenic bacteria; greater activity than conventional macrolides) was 10 fold and the “intracellular activity relative to AZI” value (pathogenic bacteria; intracellular) was 10 fold. For the same compound, the “activity against phagocytized L. monocytogenes and L. pneumophila relative to conventional macrolides” value (pathogenic bacteria; phagocytized bacteria) was 50-100 fold, the “concentration in receptor fluid (therapeutically effective)” value ([4]; 1 h) was no less than 1000 ng/mL and the “time after administration at which drug was observed in receptor fluid” value [4] was no more than 1 h. For the same compound, the MIC50 (Moraxella catarrhalis; Moraxella catarrhalis) was 0.12 µg/mL (≈ 0.142 µM), the MIC90 (Moraxella catarrhalis; Moraxella catarrhalis) was 0.12 µg/mL (≈ 0.142 µM) and the “MIC Range” value (Moraxella catarrhalis) was no more than 0.008 to 0.5 µg/mL. For the same compound, the MIC50 (Listeria monocytogenes; Listeria monocytogenes) was 0.03 µg/mL (≈ 0.0355 µM), the MIC90 (Listeria monocytogenes; Listeria monocytogenes) was 0.03 µg/mL (≈ 0.0355 µM) and the “MIC Range” value (Listeria monocytogenes) was 0.03 µg/mL (≈ 0.0355 µM). The “change in MIC in the presence of serum” value [5] was 2 fold.
